Assay results published in patent US11760773B2, “Small molecule drug conjugates of gemcitabine monophosphate” (MaveriX Oncology, Inc., priority 2018, dated 2023).
One block for each compound: values may come before it.

Key:
[1] = Plasma PK of Int 3-3 in CD-1 mice (study c); assay type: in vivo; settings: after iv Int 3-3 8.8 mg/kg
Description: Objectives: to determine the plasma pharmacokinetics of Int 3-3 following a single intravenous infusion of Int 3-3 at 8.83 mg/kg in CD-1 mice
PK measurements: compare PK parameters C0, CL, Vdss, Cmax, tmax, t1/2, AUC(0-t), AUC(0-inf), MRT(0-t), MRT(0-inf) for Int 3-3.

[2] = Compound 1 and gemcitabine plasma PK in the male cynomolgus monkey (study h); assay type: in vivo; settings: plasma; for MRT inf: read-out: MRT0-inf; for MRT last: read-out: MRT0-last
Description: Objectives: to compare the plasma pharmacokinetics and stability of the Compound 1 with Int 1-4 and in plasma following a single intravenous infusion administration of Compound 1 at 5 mg/kg and 10 mg/kg with equimolar gemcitabine at 2.28 mg/kg in male cynomolgous monkeys.
PK measurements: compare PK parameters C0, CL, Vdss, Cmax, tmax, t1/2, AUC(0-t), AUC(0-inf), MRT(0-t), MRT(0-inf) for Compound 1 and Int 1-4 with gemcitabine.

[3] = Int 1-4 dog plasma PK (study j); assay type: in vivo; settings: male beagle dog; for MRT inf: read-out: MRT0-inf; for MRT last: read-out: MRT0-last
Description: Objectives: to compare the plasma pharmacokinetics and stability of Int 1-4 in plasma following single intravenous infusion administration of t 1-4 at 10 mg/kg and 20 mg/kg in the male Beagle dog.

[4] = Comparative dog plasma PK of Int 1-4 versus gemcitabine (study k); assay type: in vivo; settings: male beagle dog, after iv gemcitabine 5.29 mg/kg
[5] = system: UT-SCC-8; assay: Tumor cell proliferation (alamarBlue) cytotoxicity assay, UT-SCC-8; assay type: cell-based, human; settings: Homo sapiens; UT-SCC-8, 72 hours treatment
Description: (§1) A tumor cell proliferation assay was used to determine cytotoxicity IC50 values for the phosphate prodrug Compounds 1-9, the parent non-phosphorylated SMDC parent compounds, and the effector (gemcitabine) across eight primary early-passage human head and neck squamous cell carcinoma cell lines including UT-SCC-5, UT-SCC-8, UT-SCC-9, UT-SCC-10, UT-SCC-14, UT-SCC-16A, UT-SCC-16B, and UT-SCC-24A.
(§2) UTSCC cells were seeded at 4000 cells/100 I/well on 96-well black clear-bottom tissue culture plate. Cells were incubated at 37° C. and 5% CO2 overnight to allow them to recover and re-attach. The next day cells were treated with the test compound (0-100 μM) for 72 hours. After treatment, cell proliferation was measured by Fluorescent quantitation of alamarBlue reagent. The alamarBlue assay incorporates a fluorometric/colorimetric growth indicator based on detection of metabolic activity. Specifically, resazurin, the active ingredient of alamarBlue reagent, is blue in color and virtually non-fluorescent. Upon entering cells, resazurin is reduced to resorufin, a compound that is red in color and highly fluorescent.
(§3) Continued cell growth maintains a reduced environment, therefore increasing the overall fluorescence and color of the media surrounding cells. The fluorescence intensity of alamarBlue reagent was directly proportional to cell number. To perform the alamarBlue assay, 10 I of alamarBlue reagent was added to each well and the plate was incubated at 37° C. for an additional 2 hour. Fluorescence intensity was measured at an excitation of 530 nm and an emission of 590 nm using a BioTek Synergy™ 2 microplate reader.
(§4) Cell proliferation assays in triplicate were performed at each concentration. The fluorescent intensity data were analyzed using the computer software, Graphpad Prism. In the absence of the compound, the fluorescent intensity (Ft) in each data set was defined as 100%. In the absence of cells, the fluorescent intensity (Fb) in each data set was defined as 0%. The percent cell in the presence of each compound was calculated according to the following equation: % cell=(F−Fb)/(Ft−Fb), where F=the fluorescent intensity in the presence of the compound, Fb=the fluorescent intensity in the absence of cells, and Ft=the fluorescent intensity in the absence of the compound. The values of % cell versus a series of compound concentrations were then plotted using non-linear regression analysis of Sigmoidal dose-response curve generated with the equation Y=B+(T−B)/1+10^((Log EC50-X)×Hill Slope) where Y=percent cell, B=minimum percent cell, T=maximum percent cell, X=logarithm of compound and Hill Slope=slope factor or Hill coefficient. The IC50 value was determined by the concentration causing a half-maximal percent activity.

[6] = system: UT-SCC-9; assay: Tumor cell proliferation (alamarBlue) cytotoxicity assay, UT-SCC-9; assay type: cell-based, human; settings: Homo sapiens; UT-SCC-9, 72 hours treatment
Description: as §1, §2, §3, §4

[7] = system: UT-SCC-10; assay: Tumor cell proliferation (alamarBlue) cytotoxicity assay, UT-SCC-10; assay type: cell-based, human; settings: Homo sapiens; UT-SCC-10, 72 hours treatment
Description: as §1, §2, §3, §4

[8] = system: UT-SCC-14; assay: Tumor cell proliferation (alamarBlue) cytotoxicity assay, UT-SCC-14; assay type: cell-based, human; settings: Homo sapiens; UT-SCC-14, 72 hours treatment
Description: as §1, §2, §3, §4

[9] = system: UT-SCC-16A; assay: Tumor cell proliferation (alamarBlue) cytotoxicity assay, UT-SCC-16A; assay type: cell-based, human; settings: Homo sapiens, 72 hours treatment
Description: as §1, §2, §3, §4

[10] = system: UT-SCC-16B; assay: Tumor cell proliferation (alamarBlue) cytotoxicity assay, UT-SCC-16B; assay type: cell-based, human; settings: Homo sapiens, 72 hours treatment
Description: as §1, §2, §3, §4

[11] = system: UT-SCC-24A; assay: Tumor cell proliferation (alamarBlue) cytotoxicity assay, UT-SCC-24A; assay type: cell-based, human; settings: Homo sapiens, 72 hours treatment
Description: as §1, §2, §3, §4

[12] = Liver microsomal stability, human; assay type: in vitro ADME
[13] = Metabolic stability in liver hepatocytes, human; assay type: in vitro ADME
[14] = Metabolic stability in liver hepatocytes, mouse; assay type: in vitro ADME
[15] = Metabolic stability in liver hepatocytes, monkey; assay type: in vitro ADME
[16] = after iv gemcitabine 2.28 mg/kg
[17] = after iv Int 1-4 10 mg/kg (study j)
[18] = after iv Int 1-4 20 mg/kg (study j)

AUC0-inf/AUC0-last [1]: 146%
AUC0-last [1]: 942 ng·h/mL
AUC(0-inf) [1]: 1403 ng·h/mL
Cmax [1]: 168 ng/mL
MRT0-inf [1]: 7.48 h
MRT0-last [1]: 3.67 h
T1/2 [1]: 5.22 h
Tmax [1]: 4.00 h
AUC0-last ([2]; after iv Compound 1 5 mg/kg): 3397 ng·h/mL
AUC(0-inf) ([2]; after iv Compound 1 5 mg/kg): 8767 ng·h/mL
Cmax ([2]; after iv Compound 1 5 mg/kg): 321 ng/mL
MRT0-inf ([2]; after iv Compound 1 5 mg/kg): 34.42 h
MRT0-last ([2]; after iv Compound 1 5 mg/kg): 8.98 h
Tmax ([2]; after iv Compound 1 5 mg/kg): 0.39 h
t1/2 ([2]; after iv Compound 1 5 mg/kg): 24.00 h
AUC0-last [2, 16]: 12467 ng·h/mL
AUC(0-inf) [2, 16]: 17600 ng·h/mL
Cmax [2, 16]: 2153 ng/mL
MRT0-inf [2, 16]: 18.06 h
MRT0-last [2, 16]: 8.21 h
Tmax [2, 16]: 0.04 h
t1/2 [2, 16]: 12.90 h
AUC0-last [3, 17]: 13167 ng·h/mL
AUC(0-inf) [3, 17]: 14300 ng·h/mL
Cmax [3, 17]: 1173 ng/mL
MRT0-inf [3, 17]: 15.33 h
MRT0-last [3, 17]: 9.20 h
Tmax [3, 17]: 3.33 h
t1/2 [3, 17]: 10.0 h
AUC0-last [3, 18]: 31267 ng·h/mL
AUC(0-inf) [3, 18]: 40233 ng·h/mL
Cmax [3, 18]: 2873 ng/mL
MRT0-inf [3, 18]: 15.97 h
MRT0-last [3, 18]: 9.27 h
Tmax [3, 18]: 2.00 h
t1/2 [3, 18]: 10.53 h
t1/2 [4]: 8.55 h
SMILES: O=c1ccn(C2OC(CO)C(O)C2(F)F)c(=O)[nH]1 (centres unmarked) [dFdU]

SMILES: Nc1ccn([C@@H]2O[C@H](CO)[C@@H](O)C2(F)F)c(=O)n1 [Gemcitabine, gemcitabine]
IC50 [5]: 22 nM
IC50 [6]: 35 nM
IC50 [7]: 9 nM
IC50 [8]: 6 nM
IC50 [9]: 61 nM
IC50 [10]: 99 nM
IC50 [11]: 14 nM
AUC0-inf/AUC0-last [1]: 113%
AUC(0-t) ([1]; mouse): 63.5 ng·h/mL
half-life ([1]; mouse): 1.38 h
AUC(0-inf) ([1]; mouse, read-out: AUC0-inf): 71.9 ng·h/mL
Cmax ([1]; mouse, read-out: Cmax): 73.4 ng/mL
MRT inf ([1]; mouse, read-out: MRT0-inf): 1.69 h
MRT last ([1]; mouse, read-out: MRT0-last): 1.13 h
Tmax ([1]; mouse, read-out: Tmax): 0.0611 h
AUC(0-t) ([2]; after iv Compound 1 5 mg/kg): 7.85 ng·h/mL
half-life ([2]; after iv Compound 1 5 mg/kg): 7.8 min
AUC(0-inf) ([2]; after iv Compound 1 5 mg/kg, read-out: AUC0-inf): 7 ng·h/mL
MRT inf ([2]; after iv Compound 1 5 mg/kg): 0.23 h
MRT last ([2]; after iv Compound 1 5 mg/kg): 0.19 h
AUC(0-t) [2, 16]: 164 ng·h/mL
C0 [2, 16]: 13400 ng/mL
clearance [2, 16]: 247 mL/min/kg
half-life [2, 16]: 1.2 min
AUC(0-inf) ([2]; after iv gemcitabine 2.28 mg/kg, read-out: AUC0-inf): 165 ng·h/mL
MRT inf [2, 16]: 0.02 h
MRT last [2, 16]: 0.02 h
Vd ([2]; after iv gemcitabine 2.28 mg/kg, read-out: Vdss): 0.231 L/kg
AUC(0-t) [3, 17]: 6160 ng·h/mL
half-life [3, 17]: 3.1 h
AUC(0-inf) ([3]; after iv Int 1-4 10 mg/kg (study j), read-out: AUC0-inf): 6180 ng·h/mL
MRT inf [3, 17]: 3.56 h
MRT last [3, 17]: 3.47 h
AUC(0-t) [3, 18]: 7690 ng·h/mL
half-life [3, 18]: 3.55 h
AUC(0-inf) ([3]; after iv Int 1-4 20 mg/kg (study j), read-out: AUC0-inf): 7880 ng·h/mL
MRT inf [3, 18]: 3.28 h
MRT last [3, 18]: 2.69 h
half-life ([12]; human liver microsomes): 0.335 h
Compound Remaining (% of 0 min) 0 min ([12]; human liver microsomes, 0 min): 100 % of 0 min
Compound Remaining (% of 0 min) 5 min ([12]; human liver microsomes, 5 min): 113 % of 0 min
Compound Remaining (% of 0 min) 15 min ([12]; human liver microsomes, 15 min): 69.1 % of 0 min
Compound Remaining (% of 0 min) 30 min ([12]; human liver microsomes, 30 min): 48.6 % of 0 min
Compound Remaining (% of 0 min) 45 min ([12]; human liver microsomes, 45 min): 22.4 % of 0 min
Compound Remaining (% of 0 min) control ([12]; human liver microsomes, control): 98.1 % of 0 min
microsomal CLint ([12]; human, liver microsomes): 68.8 µL/min/mg
Slope Mean ± SE [13]: −0.00684 ± 0.001905
half-life ([13]; read-out: t1/2 mean ± SE): 1.69 ± 0.47 h
Slope Mean ± SE [14]: −0.000512 ± 0.001111
half-life ([14]; read-out: t1/2 mean ± SE): 22.5 ± 48.9 h
Slope Mean ± SE [15]: 0.001817 ± 0.001897
MRT inf ([4]; read-out: MRT0-inf): 2.5 h
